Laboratory results taken from publication PMC10020352 (Frontiers in Pharmacology, 2023).
Where a SMILES comes first, the peptide text is derived from it. [ ]: non-standard residue; d: D form. Phe(4-NO2) = N[C@@H](Cc1ccc([N+](=O)[O-])cc1)C(=O)O; Phe(4-Cl) = N[C@@H](Cc1ccc(Cl)cc1)C(=O)O; Phe(4-F) = N[C@@H](Cc1ccc(F)cc1)C(=O)O; NMeR = CN[C@@H](CCCNC(=N)N)C(=O)O; Aoc = NCCCCCCCC(=O)O; Ahx = NCCCCCC(=O)O; Sar = CNCC(=O)O

Columns and labels:
[1] = tested on: FCA model of inflammatory nociception; conditions: rat, in vivo
KOP receptor = KOP receptor (Homo sapiens, UniProt P41145); test: cell-based; assay type: cell-based
Sequence of KOP receptor (P41145 whole entry): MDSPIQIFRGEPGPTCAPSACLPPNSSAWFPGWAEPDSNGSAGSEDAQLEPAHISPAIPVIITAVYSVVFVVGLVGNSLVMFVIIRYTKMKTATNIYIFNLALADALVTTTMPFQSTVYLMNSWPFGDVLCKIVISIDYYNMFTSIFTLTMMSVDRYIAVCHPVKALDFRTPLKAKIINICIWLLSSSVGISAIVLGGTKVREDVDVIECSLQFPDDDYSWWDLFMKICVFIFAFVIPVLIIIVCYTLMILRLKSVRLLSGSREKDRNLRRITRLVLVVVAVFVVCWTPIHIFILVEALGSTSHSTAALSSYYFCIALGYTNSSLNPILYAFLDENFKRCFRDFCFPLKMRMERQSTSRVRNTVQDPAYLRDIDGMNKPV

DOP receptor = target: T1, DOP receptor (Homo sapiens, UniProt P41143); test: cell-based
T1 construct: expressed in transfected cells; host or cells: HEK293
T1 sequence (P41143 whole entry): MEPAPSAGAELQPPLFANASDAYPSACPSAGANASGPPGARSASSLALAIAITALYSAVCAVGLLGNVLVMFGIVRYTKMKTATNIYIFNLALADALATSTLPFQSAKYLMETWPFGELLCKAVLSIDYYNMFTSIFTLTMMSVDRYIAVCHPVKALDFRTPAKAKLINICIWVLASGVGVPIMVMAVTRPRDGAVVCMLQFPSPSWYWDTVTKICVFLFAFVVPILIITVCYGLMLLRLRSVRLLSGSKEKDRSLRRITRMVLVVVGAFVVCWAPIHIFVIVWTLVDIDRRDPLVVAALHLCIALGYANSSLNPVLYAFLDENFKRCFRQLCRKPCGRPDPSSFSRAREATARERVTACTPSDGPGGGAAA

MOP receptor = target: T2, MOP receptor (Homo sapiens, UniProt P35372); test: cell-based
T2 construct: expressed in transfected cells; host or cells: HEK293
T2 sequence (P35372 whole entry): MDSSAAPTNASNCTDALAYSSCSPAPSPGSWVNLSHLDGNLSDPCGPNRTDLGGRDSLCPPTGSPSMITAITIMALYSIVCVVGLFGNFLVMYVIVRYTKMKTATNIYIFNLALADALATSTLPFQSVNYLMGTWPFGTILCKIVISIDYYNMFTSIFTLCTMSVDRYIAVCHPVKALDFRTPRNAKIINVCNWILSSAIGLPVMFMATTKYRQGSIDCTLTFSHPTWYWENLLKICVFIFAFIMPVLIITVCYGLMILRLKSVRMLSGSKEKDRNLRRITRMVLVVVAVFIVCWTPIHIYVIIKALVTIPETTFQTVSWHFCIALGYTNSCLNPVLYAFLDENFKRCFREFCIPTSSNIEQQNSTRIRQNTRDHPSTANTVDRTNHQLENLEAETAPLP

[2] = target: T3, bovine pancreatic trypsin (Bos taurus, UniProt P00760); test: Metabolic stability in trypsin; assay type: in vitro ADME; conditions: bovine pancreatic trypsin 2.5 μg/mL, pH 8-8.5, 37°C, peptide 100 μM; read-out: Stability (t1/2) Trypsin
T3 sequence (P00760 24-246): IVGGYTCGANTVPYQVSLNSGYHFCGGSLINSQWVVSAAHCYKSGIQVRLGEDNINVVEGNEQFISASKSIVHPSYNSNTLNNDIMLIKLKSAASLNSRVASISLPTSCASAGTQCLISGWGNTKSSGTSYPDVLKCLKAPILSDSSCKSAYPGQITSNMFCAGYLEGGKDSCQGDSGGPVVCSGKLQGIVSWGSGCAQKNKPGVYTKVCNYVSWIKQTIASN
Procedure: (§1) Whole blood was collected in-house from adult mixed-gender Wistar rats (RRID: RGD_150520162), and plasma was prepared in 0.2% EDTA as per standard practice. Peptides (final 100 μM) were incubated with pooled rat plasma at 37°C. Samples were collected at different time intervals 0, 5, 10, 15, 30, 60, and 120 min. At each time point, collected samples were immediately added to three volumes of cold ACN. This mixture was vortexed for 30 s and then centrifuged at room temperature (13 K rpm, 5 min). The supernatant was taken and directly placed in glass HPLC vials for LCMS analysis. The protocol for the trypsin stability assay was as for the plasma stability assay except for the […] (bovine pancreatic trypsin 2.5 μg/mL in NH4HCO3 buffer, approx. pH 8–8.5, 37°C).
(§2) Relative concentrations of each peptide from stability assays in plasma or trypsin were analysed using an Agilent binary LC system consisting of an Agilent 1290 Infinity LC pump, Agilent 1,290 auto-sampler coupled with Triple Quad Mass-Spectrometer (MS, model 6460, Agilent Technologies). A bidentate C18 HPLC column (Cogent, 100 Å, […]) with a binary solvent gradient composed of Solvent: A 0.1%v/v formic acid in MQ water and Solvent B: 0.1% v/v formic acid in ACN was used for the separation. The MS parameters were optimised for all compounds to obtain the highest signal in positive Total Ion Current (TIC) mode. Data were analysed using a combination of Microsoft Excel and GraphPad Prism software packages. Data was normalised to time point zero (immediately after compound addition) and expressed in percentages from t = 0. Half-lives were calculated in GraphPad Prism software (v8.3).

[3] = Metabolic stability in rat plasma; assay type: in vitro ADME; conditions: pooled rat plasma, 37°C, peptide 100 μM; for half-life: rat, plasma, read-out: Stability (t1/2) Plasma
Procedure: as §1, §2

SMILES | paw withdrawal threshold in the contralateral (uninflamed, untreated) paw [1] | EC50 (KOP receptor) | selectivity for KOP receptor over MOP receptor and DOP receptor (KOP receptor) | EC50 (DOP receptor) | EC50 (MOP receptor) | half-life [2] | half-life [3] | Selectivity (fold) KOP/DOP (MOP receptor) | Selectivity (fold) KOP/DOP (DOP receptor) | Stability (t1/2) Plasma [3]
CN1CC[C@]23c4c5ccc(O)c4O[C@H]2[C@@H](O)C=C[C@H]3[C@H]1C5 [Morphine, reference compound] | significantly reduced | – | – | – | – | – | – | – | – | –
CC(C)C[C@H](NC(=O)[C@H](Cc1ccc([N+](=O)[O-])cc1)NC(=O)CN(C)C(=O)[C@@H](N)Cc1ccc(O)cc1)C(=O)N[C@@H](CCCNC(=N)N)C(=O)N(C)[C@@H](CCCNC(=N)N)C(N)=O [KA310] (H-Y[Sar][Phe(4-NO2)]LR[NMeR]-NH2) | – | 1.77 nM | > 1000 fold | > 10000 nM | > 10000 nM | > 1000 min | – | – | – | –
CC(C)C[C@H](NC(=O)[C@H](Cc1ccc(Cl)cc1)NC(=O)CN(C)C(=O)[C@@H](N)Cc1ccc(O)cc1)C(=O)N[C@@H](CCCNC(=N)N)C(=O)N[C@H](CCCNC(=N)N)C(N)=O [KA206] (H-Y[Sar][Phe(4-Cl)]LR[dR]-NH2) | – | 6.1 nM | – | > 10000 nM | > 10000 nM | 15.9 min | 31.9 min | – | – | –
CC(C)C[C@H](NC(=O)[C@H](Cc1ccc([N+](=O)[O-])cc1)NC(=O)CN(C)C(=O)[C@@H](N)Cc1ccc(O)cc1)C(=O)N[C@@H](CCCNC(=N)N)C(=O)N[C@H](CCCNC(=N)N)C(=O)NCCCCCCCC(N)=O [KA314] (H-Y[Sar][Phe(4-NO2)]LR[dR][Aoc]-NH2) | – | 2.49 nM | – | > 10000 nM | > 10000 nM | 16.1 min | 18.6 min | – | – | –
CC(C)C[C@@H](NC(=O)[C@@H](Cc1ccccc1)NC(=O)[C@H](N)Cc1ccccc1)C(=O)N[C@H](CCCCN)C(=O)N1CCC(N)(C(=O)O)CC1 [CR845, reference compound] | – | – | – | – | – | > 1000 min | – | – | – | –
CC(C)C[C@H](NC(=O)[C@H](Cc1ccc([N+](=O)[O-])cc1)NC(=O)CNC(=O)CN(C)C(=O)[C@@H](N)Cc1ccc(O)cc1)C(=O)N[C@@H](CCCNC(=N)N)C(=O)N[C@H](CCCNC(=N)N)C(N)=O [KA202] | – | 930 nM | – | > 10000 nM | > 10000 nM | 8.5 min | – | – | – | –
CC(C)C[C@H](NC(=O)[C@H](Cc1ccc(Cl)cc1)NC(=O)CN(C)C(=O)[C@@H](N)Cc1ccc(O)cc1)C(=O)N[C@@H](CCCCN)C(=O)N[C@H](CCCNC(=N)N)C(N)=O [KA306] (H-Y[Sar][Phe(4-Cl)]LK[dR]-NH2) | – | 26 nM | – | > 10000 nM | > 10000 nM | 69.9 min | 160 min | – | – | –
CC(C)C[C@H](NC(=O)[C@H](Cc1ccc(F)cc1)NC(=O)CN(C)C(=O)[C@@H](N)Cc1ccc(O)cc1)C(=O)N[C@@H](CCCNC(=N)N)C(=O)N[C@H](CCCNC(=N)N)C(N)=O [KA207] (H-Y[Sar][Phe(4-F)]LR[dR]-NH2) | – | 6.7 nM | – | > 10000 nM | 3450 nM | 7.6 min | 38.2 min | 515 fold | – | –
CC(C)C[C@H](NC(=O)[C@H](Cc1ccc(F)cc1)NC(=O)CN(C)C(=O)[C@@H](N)Cc1ccc(O)cc1)C(=O)N(C)[C@@H](CCCNC(=N)N)C(=O)N[C@H](CCCNC(=N)N)C(N)=O [KA302] (H-Y[Sar][Phe(4-F)]L[NMeR][dR]-NH2) | – | 11.6 nM | – | 1660 nM | 4000 nM | > 1000 min | – | 344 fold | 143 fold | 323.9 min
CC(C)C[C@H](NC(=O)[C@H](Cc1ccccc1)NC(=O)CN(C)C(=O)[C@@H](N)Cc1ccc(O)cc1)C(=O)N[C@@H](CCCNC(=N)N)C(=O)N[C@H](CCCNC(=N)N)C(N)=O [KA203] (H-Y[Sar]FLR[dR]-NH2) | – | 74.7 nM | – | > 10000 nM | > 10000 nM | 13.6 min | 72 min | – | – | –
C[C@@H](O)[C@H](NC(=O)[C@H](Cc1ccc(Cl)cc1)NC(=O)CN(C)C(=O)[C@@H](N)Cc1ccc(O)cc1)C(=O)N[C@@H](CCCNC(=N)N)C(=O)N[C@H](CCCNC(=N)N)C(N)=O [KA308] (H-Y[Sar][Phe(4-Cl)]TR[dR]-NH2) | – | 230 nM | – | > 10000 nM | 5820 nM | – | – | 25 fold | – | –
CC(C)C[C@H](NC(=O)[C@H](Cc1ccc([N+](=O)[O-])cc1)NC(=O)CN(C)C(=O)[C@@H](N)Cc1ccc(O)cc1)C(=O)N(C)[C@@H](CCCNC(=N)N)C(=O)N[C@H](CCCNC(=N)N)C(N)=O [KA303] (H-Y[Sar][Phe(4-NO2)]L[NMeR][dR]-NH2) | – | 13.5 nM | – | 1320 nM | > 10000 nM | 12.1 min | 168 min | – | 98 fold | –
CC(C)C[C@H](NC(=O)[C@H](Cc1ccc([N+](=O)[O-])cc1)NC(=O)CNC(=O)CNC(=O)[C@@H](N)Cc1ccc(O)cc1)C(=O)N[C@@H](CCCNC(=N)N)C(=O)N[C@H](CCCNC(=N)N)C(N)=O [KA201] | – | 1090 nM | – | 2180 nM | 1720 nM | 6.4 min | – | 2 fold | 2 fold | –
CC(C)C[C@H](NC(=O)[C@H](Cc1ccc(Cl)cc1)NC(=O)[C@H](C)NC(=O)[C@@H](N)Cc1ccc(O)cc1)C(=O)N[C@@H](CCCNC(=N)N)C(=O)N[C@H](CCCNC(=N)N)C(N)=O [KA307] (H-YA[Phe(4-Cl)]LR[dR]-NH2) | – | 1040 nM | – | > 10000 nM | 1870 nM | – | – | 2 fold | – | –
CC(C)C[C@H](NC(=O)[C@H](Cc1ccc([N+](=O)[O-])cc1)NC(=O)CN(C)C(=O)[C@@H](N)Cc1ccc(O)cc1)C(=O)N[C@H](CCCNC(=N)N)C(=O)N[C@@H](CCCNC(=N)N)C(N)=O [KA205] (H-Y[Sar][Phe(4-NO2)]L[dR]R-NH2) | – | 1800 nM | – | 3920 nM | > 10000 nM | 3260 min | 28.7 min | – | 2 fold | –
CC(C)C[C@H](NC(=O)[C@H](Cc1ccc(Cl)cc1)NC(=O)CN(C)C(=O)[C@@H](N)Cc1ccc(O)cc1)C(=O)N[C@@H](CCCNC(=N)N)C(=O)N[C@H](CCCNC(=N)N)C(=O)NCCCCCC(N)=O [KA304] (H-Y[Sar][Phe(4-Cl)]LR[dR][Ahx]-NH2) | – | 3.64 nM | – | 1600 nM | 363 nM | 8.33 min | 79 min | 100 fold | 440 fold | –
CC(C)C[C@H](NC(=O)[C@H](Cc1ccc([N+](=O)[O-])cc1)NC(=O)CN(C)C(=O)[C@@H](N)Cc1ccc(O)cc1)C(=O)N[C@@H](CCCNC(=N)N)C(=O)N(C)[C@@H](CCCNC(=N)N)C(=O)NCCCCCCCC(N)=O [KA313] (H-Y[Sar][Phe(4-NO2)]LR[NMeR][Aoc]-NH2) | – | 4.45 nM | – | > 10000 nM | > 10000 nM | > 1000 min | 12.5 min | – | – | –
CC(C)C[C@H](NC(=O)[C@H](Cc1ccc(Cl)cc1)NC(=O)CN(C)C(=O)[C@@H](N)Cc1ccc(O)cc1)C(=O)N(C)[C@@H](CCCNC(=N)N)C(=O)N[C@H](CCCNC(=N)N)C(N)=O [KA301] (H-Y[Sar][Phe(4-Cl)]L[NMeR][dR]-NH2) | – | – | – | – | – | – | 2240 min | – | – | –
CC(C)C[C@H](NC(=O)[C@H](Cc1ccc(Cl)cc1)NC(=O)CN(C)C(=O)[C@@H](N)Cc1ccc(O)cc1)C(=O)N[C@@H](CCCNC(=N)N)C(=O)N(C)[C@@H](CCCNC(=N)N)C(=O)NCCCCCCCC(N)=O [KA312] (H-Y[Sar][Phe(4-Cl)]LR[NMeR][Aoc]-NH2) | – | 3.79 nM | – | > 10000 nM | > 10000 nM | 445 min | 15.6 min | – | – | –
CC(C)C[C@H](NC(=O)[C@H](Cc1ccc(Cl)cc1)NC(=O)CN(C)C(=O)[C@@H](N)Cc1ccc(O)cc1)C(=O)N[C@@H](CCCNC(=N)N)C(=O)N(C)[C@@H](CCCNC(=N)N)C(N)=O [KA309] (H-Y[Sar][Phe(4-Cl)]LR[NMeR]-NH2) | – | 3.9 nM | – | > 10000 nM | > 10000 nM | > 1000 min | – | – | – | 174.1 min
